In patent US6924302B2, “Substituted triazole diamine derivatives as kinase inhibitors” (Ortho McNeil Pharmaceutical, Inc., priority 2000, dated 2005):
pIC50: −log10 of the molar value. Read-outs that look alike come from different tables or passages of the source.

How the values were obtained:
[1] = target: T1, VEGF-R (vascular endothelial growth factor receptor-2) (Rattus norvegicus, UniProt O08775); assay: VEGF-R Screening Assay; type: biochemical
T1 construct: polyhistidine (6xHIS) (N)

[2] = target: T2, CDK1:Cyclin-B (Homo sapiens, UniProt P06493); assay: CDK1 Screening Assay; type: biochemical
T2 construct: purchased New England Biolabs 6020; host or cells: insect cells
T2 sequence (P06493 whole entry): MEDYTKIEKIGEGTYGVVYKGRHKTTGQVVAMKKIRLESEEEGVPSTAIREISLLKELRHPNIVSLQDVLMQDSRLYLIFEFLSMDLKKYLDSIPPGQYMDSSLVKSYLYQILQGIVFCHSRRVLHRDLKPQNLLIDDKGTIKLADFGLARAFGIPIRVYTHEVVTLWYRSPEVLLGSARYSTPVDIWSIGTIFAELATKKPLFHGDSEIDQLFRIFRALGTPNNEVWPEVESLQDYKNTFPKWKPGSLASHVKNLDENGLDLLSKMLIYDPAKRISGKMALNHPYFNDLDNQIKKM
T2 sequence (P14635 whole entry partner): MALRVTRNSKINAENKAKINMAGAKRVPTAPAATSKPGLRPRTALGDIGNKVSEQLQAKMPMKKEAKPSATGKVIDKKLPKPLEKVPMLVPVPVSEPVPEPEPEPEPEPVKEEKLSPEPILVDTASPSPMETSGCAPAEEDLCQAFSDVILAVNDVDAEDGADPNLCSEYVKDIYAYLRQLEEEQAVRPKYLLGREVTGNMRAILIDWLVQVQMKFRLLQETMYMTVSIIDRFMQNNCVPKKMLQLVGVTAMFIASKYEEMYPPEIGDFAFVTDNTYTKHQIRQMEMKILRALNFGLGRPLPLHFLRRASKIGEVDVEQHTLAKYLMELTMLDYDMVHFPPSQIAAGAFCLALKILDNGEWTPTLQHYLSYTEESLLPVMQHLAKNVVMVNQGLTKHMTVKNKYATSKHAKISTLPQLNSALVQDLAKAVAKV
Procedure, shortened: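 Human CDK1:cyclin-B (30 ng/well) with biotinylated histone-H1 peptide and ^33P-γ-ATP, 1 h at 30° C, 1% DMSO, on streptavidin FlashPlate; incorporation read by scintillation.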

[3] = target: T3, PDGF-R (platelet derived growth factor receptor) beta subunit kinase domain (Homo sapiens, UniProt P09619); assay: Kinase Selectivity Assay PDGF-R; type: biochemical
T3 construct: nucleotides 1874-3507 of the human PDGF-R beta subunit kinase domain; polyhistidine (N)
T3 sequence (P09619 564-1106): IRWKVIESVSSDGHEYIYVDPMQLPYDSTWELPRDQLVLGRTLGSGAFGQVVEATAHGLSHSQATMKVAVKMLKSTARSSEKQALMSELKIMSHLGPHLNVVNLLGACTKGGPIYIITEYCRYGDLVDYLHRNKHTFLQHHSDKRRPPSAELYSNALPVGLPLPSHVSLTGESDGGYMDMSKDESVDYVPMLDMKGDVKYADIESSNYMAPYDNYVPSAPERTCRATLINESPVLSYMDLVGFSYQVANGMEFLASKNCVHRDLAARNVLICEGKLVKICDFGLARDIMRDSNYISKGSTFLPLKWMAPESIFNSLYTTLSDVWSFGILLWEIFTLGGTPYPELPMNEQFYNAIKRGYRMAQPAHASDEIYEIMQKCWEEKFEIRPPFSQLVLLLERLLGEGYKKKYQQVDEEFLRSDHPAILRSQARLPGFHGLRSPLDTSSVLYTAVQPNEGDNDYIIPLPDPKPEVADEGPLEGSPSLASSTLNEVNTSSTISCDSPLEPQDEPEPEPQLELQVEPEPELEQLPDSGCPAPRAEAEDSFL
Description: (§1) Assays to test compound inhibition of other kinases were preformed using methods that measure the amount of phosphorylation of a biotinylated peptide substrate. Biotinylated peptide substrates were selected from the literature as appropriate for the enzyme being evaluated. […] Assay conditions vary slightly for each protein kinase, for example, insulin receptor kinase requires 10 mM MnCl2 for activity and Calmodulin-dependent protein kinase requires calmodulin and 10 mM CaCl2. These assay conditions are known in the art. The reaction mixture was dispensed into the wells of a streptavidin coated Flashplate and 1 μl drug stock in 100% DMSO was added to a 100 μl reaction volume resulting in a final concentration of 1% DMSO on the reaction. Enzyme was diluted in 50 mM Tris-HCl pH=8.0, 0.1% BSA and add to each well. The reaction was incubated for one hour at 30° C. in the presence of compound. After one hour the reaction mix was aspirated from the plate and the plate was washed with PBS containing 100 mM EDTA. The plate was read on a scintillation counter to determine ^33P-γ-ATP incorporated into the immobilized peptide. Test compounds were assayed in duplicate at 8 concentrations [100 uM, 10 uM, 1 uM, 100 nM, 10 nM, 1 nM, 100 pM, 10 pM]. A maximum and minimum signal for the assay was determined on each plate. The IC50 was calculated from the dose response curve of the percent inhibition of the maximum signal in the assay according to the formula [max signal—background/test compound signal—background (100)=% inhibition] by graphing the percent inhibition against the log concentration of test compound. Known inhibitor compounds appropriate for the kinase being assayed were also included on each plate.
(§2) CDK2 in complex with cyclin A is commercially available (Upstate Biotech, Lake Placid, N.Y.). The CDK4 complex was composed of a mouse CDK4 protein and a mouse Cyclin D1 protein (The mouse CDK4 protein was genetically fused to an N-terminal Flag-epitope tag and the mouse Cyclin D1 protein was fused with an N-terminal AU-1 epitope tag. The genes encoding these proteins were transferred to commercially available baculoviral vectors. The recombinant CDK4/D1 complex was then made by co-infecting commercially available insect cells with viruses carrying these two constructs). […] ERK-1 protein (Discontinued from Calbiochem). EGFR (epidermal growth factor receptor) is purified from human A431 cell membranes (Sigma, St. Louis, Mo., Cat.# E3641).

[4] = target: T4, MAP Kinase (ERK-2 isoform) (Rattus norvegicus, UniProt P63086); assay: Kinase Selectivity Assay MAP Kinase (ERK-2); type: biochemical
T4 construct: polyhistidine (N); host or cells: E. coli
T4 sequence (P63086 whole entry, canonical isoform): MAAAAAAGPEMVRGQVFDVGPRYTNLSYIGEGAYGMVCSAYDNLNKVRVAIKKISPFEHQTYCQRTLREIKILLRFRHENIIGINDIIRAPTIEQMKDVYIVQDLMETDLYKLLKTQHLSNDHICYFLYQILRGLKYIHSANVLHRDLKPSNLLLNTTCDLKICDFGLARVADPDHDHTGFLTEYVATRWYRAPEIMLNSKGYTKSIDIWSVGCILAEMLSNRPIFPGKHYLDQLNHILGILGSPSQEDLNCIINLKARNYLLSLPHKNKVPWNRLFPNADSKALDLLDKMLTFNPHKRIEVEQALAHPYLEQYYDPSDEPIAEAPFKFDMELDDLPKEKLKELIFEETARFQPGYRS
Description: as §1, §2

[5] = target: T5, Glycogen Synthase Kinase-3 (beta isoform) (Oryctolagus cuniculus, UniProt G1T8E2); assay: Kinase Selectivity Assay Glycogen Synthase Kinase-3; type: biochemical, rabbit
T5 construct: purchased New England Biolabs 6040; host or cells: E. coli
T5 sequence (G1T8E2 1-432): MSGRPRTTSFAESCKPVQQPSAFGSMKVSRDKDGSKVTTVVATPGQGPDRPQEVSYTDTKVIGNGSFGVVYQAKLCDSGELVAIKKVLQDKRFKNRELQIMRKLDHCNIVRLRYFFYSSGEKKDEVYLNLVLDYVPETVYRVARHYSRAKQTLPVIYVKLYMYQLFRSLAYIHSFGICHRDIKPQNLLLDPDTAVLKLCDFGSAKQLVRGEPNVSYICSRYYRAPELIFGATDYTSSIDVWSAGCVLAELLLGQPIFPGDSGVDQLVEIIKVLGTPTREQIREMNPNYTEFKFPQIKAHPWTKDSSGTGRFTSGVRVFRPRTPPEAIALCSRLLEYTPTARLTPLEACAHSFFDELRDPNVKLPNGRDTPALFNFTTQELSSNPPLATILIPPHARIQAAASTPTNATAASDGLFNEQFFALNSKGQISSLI
Description: as §1, §2

[6] = target: T6, Casein Kinase 2 (alpha and beta subunits) (Homo sapiens, UniProt P68400); assay: Kinase Selectivity Assay Casein Kinase 2; type: biochemical
T6 construct: purchased New England Biolabs 6010; host or cells: E. coli
T6 sequence (P68400 whole entry): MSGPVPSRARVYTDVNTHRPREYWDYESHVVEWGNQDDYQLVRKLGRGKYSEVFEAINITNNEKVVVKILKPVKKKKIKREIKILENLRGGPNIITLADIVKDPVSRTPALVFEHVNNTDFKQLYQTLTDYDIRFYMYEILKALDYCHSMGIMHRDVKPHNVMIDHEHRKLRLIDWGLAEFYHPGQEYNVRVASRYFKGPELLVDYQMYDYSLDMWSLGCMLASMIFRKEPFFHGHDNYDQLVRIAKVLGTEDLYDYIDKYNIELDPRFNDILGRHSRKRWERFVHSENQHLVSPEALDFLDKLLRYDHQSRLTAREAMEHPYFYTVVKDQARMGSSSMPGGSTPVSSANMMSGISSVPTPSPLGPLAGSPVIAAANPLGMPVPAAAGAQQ
T6 sequence (P67870 whole entry partner): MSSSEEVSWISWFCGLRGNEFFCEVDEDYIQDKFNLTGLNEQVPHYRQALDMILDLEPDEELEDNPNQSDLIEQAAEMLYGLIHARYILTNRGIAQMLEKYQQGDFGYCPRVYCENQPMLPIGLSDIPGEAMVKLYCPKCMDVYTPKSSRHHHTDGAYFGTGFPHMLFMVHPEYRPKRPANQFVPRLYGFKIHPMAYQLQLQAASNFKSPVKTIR
Description: as §1, §2

[7] = target: T7, Protein Kinase A (Bos taurus, UniProt P00517); assay: Kinase Selectivity Assay Protein Kinase A; type: biochemical, bovine
T7 construct: purified from bovine heart; purchased Upstate Biotech 14-114; host or cells: bovine heart
Description: as §1, §2

[8] = target: T8, HER2 (human epidermal growth factor receptor-2) (Homo sapiens, UniProt P04626); assay: Kinase Selectivity Assay HER2; type: biochemical
T8 construct: begins at amino acid 676 followed by the remainder of the HER2 cytoplasmic domain; polyhistidine (N)
T8 sequence (P04626 676-1255 limits assumed): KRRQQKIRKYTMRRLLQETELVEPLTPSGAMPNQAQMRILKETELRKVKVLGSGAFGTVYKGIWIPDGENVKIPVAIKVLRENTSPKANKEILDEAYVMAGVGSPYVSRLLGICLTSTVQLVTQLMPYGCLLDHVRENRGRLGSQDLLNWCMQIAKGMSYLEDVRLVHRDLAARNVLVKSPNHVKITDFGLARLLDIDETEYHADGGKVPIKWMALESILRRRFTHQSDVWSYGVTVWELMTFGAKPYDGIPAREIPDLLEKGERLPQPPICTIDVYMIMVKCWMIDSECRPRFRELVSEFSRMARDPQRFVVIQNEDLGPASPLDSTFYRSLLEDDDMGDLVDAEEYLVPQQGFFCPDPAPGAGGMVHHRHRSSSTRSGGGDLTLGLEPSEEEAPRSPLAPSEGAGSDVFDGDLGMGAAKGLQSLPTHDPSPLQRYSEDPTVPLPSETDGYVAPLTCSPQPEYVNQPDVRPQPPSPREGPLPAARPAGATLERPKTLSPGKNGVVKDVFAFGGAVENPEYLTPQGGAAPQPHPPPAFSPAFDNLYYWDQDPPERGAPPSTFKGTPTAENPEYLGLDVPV
Description: as §1, §2

[9] = target: Insulin Receptor Kinase (Homo sapiens, UniProt P06213); assay: Kinase Selectivity Assay Insulin Receptor Kinase; type: biochemical
Insulin Receptor Kinase, sequence (P06213 980-1352): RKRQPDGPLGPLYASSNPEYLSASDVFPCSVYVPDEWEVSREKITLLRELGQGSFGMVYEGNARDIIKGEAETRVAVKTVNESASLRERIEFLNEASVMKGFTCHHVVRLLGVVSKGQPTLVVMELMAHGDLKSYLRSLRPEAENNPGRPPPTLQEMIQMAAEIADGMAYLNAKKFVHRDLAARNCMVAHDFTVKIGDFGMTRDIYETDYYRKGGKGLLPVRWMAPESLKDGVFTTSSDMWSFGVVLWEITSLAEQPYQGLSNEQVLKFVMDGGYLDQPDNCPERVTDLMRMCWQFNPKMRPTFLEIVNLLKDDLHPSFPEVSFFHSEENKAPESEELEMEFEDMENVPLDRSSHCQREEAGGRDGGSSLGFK
Description: as §1, §2

[10] = target: T9, Calmodulin Kinase (calmodulin-dependent protein kinase 2) (Rattus norvegicus, UniProt P11275); assay: Kinase Selectivity Assay Calmodulin Kinase; type: biochemical
T9 construct: a truncated version of the alpha subunit of the rat protein; purchased New England Biolabs 6060; host or cells: insect cells
Description: as §1, §2

[11] = target: T10, CDK2 in complex with cyclin A (Homo sapiens, UniProt P24941); assay: Kinase Selectivity Assay CDK2; type: biochemical; conditions: Table 1
T10 construct: purchased Upstate Biotech
Description: as §1, §2

[12] = Kinase Selectivity, Tables 2a-2k, read-out: VEGF-R IC50
[13] = Kinase Selectivity, Tables 2a-2k, read-out: CDK1 IC50
[14] = Kinase Selectivity, Tables 2a-2k, read-out: Caseine Kinase 2 IC50
[15] = Kinase Selectivity, Tables 2a-2k, read-out: PDGF-R kinase IC50
[16] = Kinase Selectivity, Tables 2a-2k, read-out: GSK-3 IC50
[17] = Kinase Selectivity, Tables 2a-2k, read-out: HER2 Kinase IC50

T1 sequence (O08775 786-1343): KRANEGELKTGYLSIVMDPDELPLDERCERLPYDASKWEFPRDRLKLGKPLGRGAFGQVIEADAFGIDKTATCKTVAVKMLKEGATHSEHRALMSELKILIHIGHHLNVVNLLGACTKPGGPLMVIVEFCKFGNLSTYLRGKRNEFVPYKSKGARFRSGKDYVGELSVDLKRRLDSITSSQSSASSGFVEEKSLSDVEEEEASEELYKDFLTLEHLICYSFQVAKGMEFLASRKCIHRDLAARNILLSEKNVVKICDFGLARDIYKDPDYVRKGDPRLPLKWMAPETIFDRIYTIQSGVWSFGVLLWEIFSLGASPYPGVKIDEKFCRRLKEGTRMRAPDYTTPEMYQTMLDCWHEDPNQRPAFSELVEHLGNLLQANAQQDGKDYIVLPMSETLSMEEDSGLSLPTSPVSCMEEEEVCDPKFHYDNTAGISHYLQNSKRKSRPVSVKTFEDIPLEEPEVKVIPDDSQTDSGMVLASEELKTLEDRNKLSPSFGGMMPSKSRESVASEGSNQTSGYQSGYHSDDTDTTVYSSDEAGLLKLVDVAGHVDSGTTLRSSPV

Structure (SMILES) | pIC50 ([1]; Table 1, read-out: VEGF-R IC50) | pIC50 ([2]; Table 1, read-out: CDK1 IC50) | pIC50 ([8]; Table 1, read-out: HER2 IC50) | further results
Cc1ccc(F)c(C(=O)n2nc(Nc3ccc(S(N)(=O)=O)cc3)nc2N)c1F [Cpd 2, 4-[[5-amino-1-(2,6-difluoro-3-methylbenzoyl)-1H-1,2,4-triazol-3-yl]amino]-benzenesulfonamide] | 6.44 | 8.49 | – | pIC50 [1, 12]: 6.44; pIC50 [2, 13]: 8.52; pIC50 [3]: 4.97; pIC50 [4]: 5.02; pIC50 [5]: 7.51
Cc1ccsc1C(=O)n1nc(Nc2ccc(S(N)(=O)=O)cc2)nc1N [Cpd 15, 4-[[5-amino-1-[(3-methyl-2-thienyl)carbonyl]-1H-1,2,4-triazol-3-yl]amino]-benzenesulfonamide] | – | 8.32 | – | pIC50 [6, 14]: < 4.00; pIC50 [2, 13]: 8.32; pIC50 [3, 15]: 7.10; pIC50 [5, 16]: 8.74
Cc1cc(C)c(C(=O)n2nc(Nc3ccc(S(N)(=O)=O)cc3)nc2N)s1 [Cpd 33, 4-[[5-amino-1-[(3,5-dimethyl-2-thienyl)carbonyl]-1H-1,2,4-triazol-3-yl]amino]-benzenesulfonamide] | – | – | – | pIC50 [1]: 7.63; pIC50 [1, 12]: 7.64; pIC50 [6]: < 5.00; pIC50 [7]: < 4.00; pIC50 ([2]; CDK1 IC50, Kinase Selectivity, Tables 2a-2k): 8.52; pIC50 ([2]; CDK1 IC50, Table 1): 8.49; pIC50 [8]: 8.30; pIC50 [3]: 7.41; pIC50 [4]: < 5.00; pIC50 [5]: 8.40; pIC50 [9]: 6.50; pIC50 [10]: < 5.00
Nc1nc(Nc2ccc(S(N)(=O)=O)cc2)nn1C(=S)Nc1c(F)cccc1F [Cpd 66, 5-amino-3-[[4-(aminosulfonyl)phenyl]amino]-N-(2,6-difluorophenyl)-1H-1,2,4-triazole-1-carbothioamide] | – | 9.22 | 7.22 | pIC50 [6, 14]: < 4.00; pIC50 [2, 13]: 9.22; pIC50 [8, 17]: 7.22; pIC50 [3, 15]: 5.80
Nc1nc(Nc2ccc(S(N)(=O)=O)cc2)nn1C(=O)Nc1c(F)cccc1F [Cpd 67, 5-amino-3-[[4-(aminosulfonyl)phenyl]amino]-N-(2,6-difluorophenyl)-1H-1,2,4-triazole-1-carboxamide] | 7.42 | 8.43 | 7.28 | pIC50 [11]: 8.85
CCNS(=O)(=O)c1ccc(Nc2nc(N)n(C(=O)c3c(F)cccc3F)n2)cc1 [Cpd 76, 4-[[5-amino-1-(2,6-difluorobenzoyl)-1H-1,2,4-triazol-3-yl]amino]-N-ethyl-benzenesulfonamide] | 6.28 | 7.92 | ~6.00 | pIC50 [11]: 8.36
Nc1nc(Nc2ccc(S(N)(=O)=O)cc2)nn1C(=O)c1c(F)ccc(Cl)c1F [Cpd 78, 4-[[5-amino-1-(3-chloro-2,6-difluorobenzoyl)-1H-1,2,4-triazol-3-yl]amino]-benzenesulfonamide] | 6.38 | 8.18 | 6.11 | pIC50 [11]: 8.77
CNc1nc(N)n(C(=O)c2sccc2C)n1 [Cpd 79, N^3-methyl-1-[(3-methyl-2-thienyl)carbonyl]-1H-1,2,4-triazole-3,5-diamine] | < 4.00 | < 4.00 | < 4.00 | pIC50 [11]: < 4.00
Cc1ccc(F)c(C(=O)n2nc(Nc3ccc(-n4ccnc4)cc3)nc2N)c1F [Cpd 94, 1-(2,6-difluoro-3-methylbenzoyl)-N^3-[4-(1H-imidazol-1-yl)phenyl]-1H-1,2,4-triazole-3,5-diamine] | 6.39 | 6.57 | 6.83 | –
Cc1ccc(F)c(C(=O)n2nc(Nc3ccc(-n4cncn4)cc3)nc2N)c1F [Cpd 95, 1-(2,6-difluoro-3-methylbenzoyl)-N^3-[4-(1H-1,2,4-triazol-1-yl)phenyl]-1H-1,2,4-triazole-3,5-diamine] | 6.59 | 6.86 | 6.04 | –
Nc1nc(Nc2ccc(-n3cncn3)cc2)nn1C(=O)c1c(F)cccc1F [Cpd 96, 1-(2,6-difluorobenzoyl)-N^3-[4-(1H-1,2,4-triazol-1-yl)phenyl]-1H-1,2,4-triazole-3,5-diamine] | 6.09 | 6.43 | 5.85 | –
Cc1cc(C)c(C(=O)n2nc(Nc3ccc(-n4cncn4)cc3)nc2N)s1 [Cpd 98, 1-[(3,5-dimethyl-2-thienyl)carbonyl]-N^3-[4-(1H-1,2,4-triazol-1-yl)phenyl]-1H-1,2,4-triazole-3,5-diamine] | ~7.00 | < 7.00 | ~7.00 | –
CN(C)CCNS(=O)(=O)c1ccc(Nc2nc(N)n(C(=O)c3c(F)cccc3F)n2)cc1 [Cpd 106] | 6.25 | 6.90 | 4.43 | pIC50 [11]: 9.00
Nc1nc(Nc2cccc(Cl)c2)n(C(=O)c2c(F)cccc2F)n1 [Cpd 126, N^5-(3-chlorophenyl)-1-(2,6-difluorobenzoyl)-1H-1,2,4-triazole-3,5-diamine] | – | – | – | pIC50 [1, 12]: < 4.00; pIC50 [2, 13]: < 4.00; pIC50 [8, 17]: ~4.00; pIC50 [5, 16]: < 4.00
Nc1nc(Nc2cccc(Cl)c2)n(C(=O)c2ccccc2)n1 [Cpd 127, 1-benzoyl-N^5-(3-chlorophenyl)-1H-1,2,4-triazole-3,5-diamine] | – | – | – | pIC50 [1, 12]: < 4.00; pIC50 [2, 13]: < 4.00; pIC50 [8, 17]: < 4.00; pIC50 [5, 16]: < 4.00

More lines, main results first:

pIC50 ([1]; Table 1, read-out: VEGF-R IC50) | pIC50 ([2]; Table 1, read-out: CDK1 IC50) | pIC50 ([8]; Table 1, read-out: HER2 IC50) | Structure (SMILES) | further results
~7.00 | ~7.00 | ~8.00 | CCc1ccc(C(=O)n2nc(Nc3ccc(-n4cncn4)cc3)nc2N)s1 [Cpd 97, 1-[(5-ethyl-2-thienyl)carbonyl]-N^3-[4-(1H-1,2,4-triazol-1-yl)phenyl]-1H-1,2,4-triazole-3,5-diamine] | –
5.96 | 6.47 | 5.89 | Nc1nc(Nc2ccc(-n3cnnc3)cc2)nn1C(=O)c1c(F)cccc1F [Cpd 100, 1-(2,6-difluorobenzoyl)-N^3-[4-(4H-1,2,4-triazol-4-yl)phenyl]-1H-1,2,4-triazole-3,5-diamine] | –
6.19 | 6.85 | 6.09 | Cc1ccc(F)c(C(=O)n2nc(Nc3ccc(-n4cnnc4)cc3)nc2N)c1F [Cpd 101, 1-(2,6-difluoro-3-methylbenzoyl)-N^3-[4-(4H-1,2,4-triazol-4-yl)phenyl]-1H-1,2,4-triazole-3,5-diamine] | –
5.96 | 5.63 | 5.65 | Cc1ccsc1C(=O)n1nc(Nc2ccc(-n3cnnc3)cc2)nc1N [Cpd 102, 1-[(3-methyl-2-thienyl)carbonyl]-N^3-[4-(4H-1,2,4-triazol-4-yl)phenyl]-1H-1,2,4-triazole-3,5-diamine] | –
6.15 | 6.82 | 4.77 | CS(=O)(=O)Nc1ccc(Nc2nc(N)n(C(=O)c3c(F)cccc3F)n2)cc1 [Cpd 111] | –
6.15 | 7.06 | 4.79 | Cc1ccc(F)c(C(=O)n2nc(Nc3ccc(NS(C)(=O)=O)cc3)nc2N)c1F [Cpd 112] | –
